# Measured values from patent US20220089540A1 (Board of Trustees of Michigan State University, priority 2019, published 2022).
# Values joined by “and” are separate entries in the source; they are usually repeats but may differ in a detail not shown here. Identical values can stand only once.
# Test system: inducible nitric oxide synthase (iNOS)
# Experiment: iNOS suppression / NO assay in LPS-stimulated macrophages or RAW264.7 cells (Griess reaction)
# Type: cell-based, mouse
# Details: Mus musculus, RAW264.7, 24 h, read-out: iNOS (300 nM)
# Description: Macrophages or RAW264.7 like-cells were treated with various concentrations of rexinoids and stimulated with lipopolysaccaride (LPS) to activate inducible nitric oxide synthase (iNOS) to produce nitric oxide. This in vitro iNOS assay was rapid, reproducible, quantitative and predictive. Nitric oxide is implicated in the apoptosis of cancer cells via regulation of RXRs. There is a tight correlation between the % reduction of iNOS and efficacy in preclinical lung cancer models. Lower numbers indicate higher efficacy.
# RAW264.7 cells were incubated with 300 nM rexinoids and stimulated with 1-2 ng/ml lipopolysaccaride (LPS) for 24 hours to activate inducible nitric oxide synthase (iNOS) to produce nitric oxide. Nitric oxide released into the media was measured by the Griess reaction.
# Also, for Table 6, the iNOS suppression is the percent of the LPS-stimulated control where the compounds were measured at 100 nM or 300 nM.
# Macrophages or RAW264.7 cells were treated with various concentrations of rexinoids listed in Table 7 and stimulated with lipopolysaccaride (LPS) to activate inducible nitric oxide synthase (iNOS) to produce nitric oxide. Nitric oxide (NO) is implicated in the apoptosis of cancer cells via regulation of RXRs. There is a tight correlation between the % reduction of iNOS and efficacy in preclinical lung cancer models. The in vitro iNOS assay is rapid, reproducible, quantitative and predictive, as NO production is measured in culture medium using the Griess reaction. Values are either presented as % inhibition or IC50 values.
row,SMILES,activity at 0.3 µM
1,"C=C(c1ccc(C(=O)O)cc1)c1cc(C(C)(C)C)ccc1OCC [Compound 4, 4-[1-(5-tert-butyl-2-ethoxyphenyl)ethenyl]benzoic Acid]",65%
2,"C=C(c1ccc(C(=O)O)cc1)c1ccc(OCC(C)C)c(C(C)C)c1 [Compound 5, 4-{1-[3-iso-propyl-4-(2-methylpropoxy)phenyl]ethenyl}benzoic Acid]",65%
3,"C=C(c1ccc(C(=O)O)cc1)c1cc(C(C)C)c(OC(C)C)cc1C [Compound 1, 4-{1-[2-methyl-5-(propan-2-yl)-4-(propan-2-yloxy)phenyl]ethenyl}benzoic Acid]",41%

# Same assay, conditions: Mus musculus, RAW264.7, 24 h; at 300 nM; percent of the LPS-stimulated control, lower is better; Table 6; read-out: iNOS suppression
row,SMILES,activity at 0.3 µM
1,C=C(c1ccc(C(=O)O)cc1)c1cc(C(C)(C)C)ccc1OCC [drawing 108],67%
2,CC(C)(C)c1cc(-n2c(C(F)(F)F)nc3cc(C(=O)O)ccc32)cc(C(C)(C)C)c1 [drawing 109],45%
3,C=C(c1ccc(C(=O)O)cc1)c1cc2c(cc1C)CCCC2(C)C,55%
4,CCOc1c(N(CC)c2ccc(C(=O)O)cc2)cc(C(C)(C)C)cc1C(C)(C)C [drawing 107],60%
5,CCN(c1ccc(C(=O)O)cn1)c1cc(C(C)(C)C)ccc1C [drawing 112],60%

# Same assay, conditions: Mus musculus, RAW264.7; Table 7
row,IC50,SMILES
1,300 to 600 nM,CC(C)CN(c1ncc(C(=O)O)cn1)c1cc(C(C)(C)C)cc2c1CCC2(C)C
2,100 to 200 nM,CC(C)CN(c1ccc(C(=O)O)cn1)c1cc(C(C)(C)C)cc2c1CCC2(C)C
3,100 to 200 nM,"CC(C)N(c1ccc(C(=O)O)cn1)c1cc(C(C)(C)C)cc2c1CCC2(C)C [6-[(6-tert-butyl-1,1-dimethyl-2,3-dihydro-1H-inden-4-yl)(propan-2-yl)amino]pyridine-3-carboxylic Acid]"
4,100 to 200 nM,CCCN(c1ccc(C(=O)O)cn1)c1cc(C(C)(C)C)cc2c1CCC2(C)C
5,300 to 600 nM,Cc1ccc(N(CC2CC2)c2ccc(C(=O)O)cn2)cc1C(F)(F)F
6,100 to 200 nM,CC(C)(C)c1cc(N(CC2CC2)c2ccc(C(=O)O)cn2)c2c(c1)C(C)(C)CC2
7,300 to 600 nM,CCCCN(c1ncc(C(=O)O)cn1)c1cc(C(C)(C)C)cc2c1CCC2(C)C
8,300 to 600 nM,CCCN(c1ncc(C(=O)O)cn1)c1cc(C(C)(C)C)cc2c1CCC2(C)C
9,300 to 600 nM,Cc1cc(N(CC(C)C)c2ccc(C(=O)O)cn2)cc(C(F)(F)F)c1
10,100 to 200 nM,CCCCN(c1ccc(C(=O)O)cn1)c1cc(C(C)(C)C)cc2c1CCC2(C)C
11,300 to 600 nM,Cc1ccc(N(CC(C)C)c2ccc(C(=O)O)cn2)cc1C(F)(F)F [6-{[4-methyl-3-(trifluoromethyl)phenyl](2-methylpropyl)amino}pyridine-3-carboxylic Acid]
12,300 to 600 nM,"CC(C)(C)c1cc(N(Cc2ccccc2)c2ccc(C(=O)O)cn2)cc(C(C)(C)C)c1 [drawing 195, 6-[benzyl(3,5-di-tert-butylphenyl)amino]pyridine-3-carboxylic Acid]"
13,200 to 300 nM,CC(C)(C)c1cc(N(CC2CC2)c2ncc(C(=O)O)cn2)c2c(c1)C(C)(C)CC2
14,100 to 200 nM,CC(C)N(c1cc(C(F)(F)F)cc(C(F)(F)F)c1)c1ncc(C(=O)O)cn1
15,300 to 600 nM,CCCN(c1ccc(C)c(C(F)(F)F)c1)c1ccc(C(=O)O)cn1 [6-{[4-methyl-3-(trifluoromethyl)phenyl](propyl)amino}pyridine-3-carboxylic Acid]
16,300 to 600 nM,CC(C)N(c1ncc(C(=O)O)cn1)c1cc(C(C)(C)C)cc2c1CCC2(C)C
17,300 to 600 nM,Cc1ccc(N(c2ccc(C(=O)O)cn2)C(C)C)cc1C(F)(F)F

# Same assay, conditions: Mus musculus; 300 nM; RAW264.7, 1-2 ng/ml LPS, 24 hours; Table 3; read-out: iNOS (300 nM)
row,SMILES,activity at 0.3 µM
1,"C=C(c1ccc(C(=O)O)cc1)c1cc(C(C)C)c(OCC)cc1C [Compound 2, 4-{1-[4-ethoxy-2-methyl-5-(propan-2-yl)phenyl]ethenyl}benzoic Acid]",45%

# Test system: SREBP
# Experiment: SREBP induction in human liver (HepG2) cells, RT-PCR
# Type: cell-based
# Details: 300 nM; HepG2; Table 5
# Description: The SREBP transcription factor is involved in triglyceride synthesis, and its activation correlates with increased triglycerides in vivo. […] Lower numbers indicate better safety. […] Lower numbers indicate better safety. Also, for Table 6, SREBP activation was measured as fold induction compared to DMSO, where a lower value indicates the compound is an improvement over a control.
row,SMILES,Safety SREBP mRNA fold induction at 300 nM
1,"C=C(c1ncc(C(=O)O)cn1)c1cc2c(cc1C)C(C)(C)CCC2(C)C [Pyrimidine Bexarotene, reference compound]",1.19 ± .1 fold

# Same assay, conditions: fold induction compared to DMSO; several values per cell; Table 6
row,SMILES,SREBP activation
1,C=C(c1ccc(C(=O)O)cc1)c1cc(C(C)(C)C)ccc1OCC [drawing 108],2.1 fold induction
2,CC(C)CN(c1cc(C(C)(C)C)cc(C(C)(C)C)c1)c1ccc(C(=O)O)cn1 [drawing 122],1.7 fold induction and 2.0 fold induction
3,CC(C)(C)c1cc(-n2c(C(F)(F)F)nc3cc(C(=O)O)ccc32)cc(C(C)(C)C)c1 [drawing 109],3.4 fold induction and 2.1 fold induction
4,C=C(c1ccc(C(=O)O)cc1)c1cc2c(cc1C)CCCC2(C)C,2.0 fold induction
5,CCOc1c(N(CC)c2ccc(C(=O)O)cc2)cc(C(C)(C)C)cc1C(C)(C)C [drawing 107],2.4 fold induction
6,CCCCN(c1cc(C(C)(C)C)cc(C(C)(C)C)c1)c1ccc(C(=O)O)cn1 [drawing 123],5.3 fold induction
7,CCN(c1ccc(C(=O)O)cn1)c1cc(C(C)(C)C)ccc1C [drawing 112],2.7 fold induction and 2.2 fold induction

# Same assay, conditions: human, HepG2 cells (human liver carcinoma); 300 nM; HepG2; Table 5; read-out: Safety SREBP mRNA fold induction at 300 nM
row,SMILES,fold induction at 0.3 µM
1,CCCN(c1cc(C(C)(C)C)cc(C(C)(C)C)c1)c1ncc(C(=O)O)cn1,1.25 ± 0.1
2,C=C(c1ccc(C(=O)O)cc1)c1cc(C(C)C)c(OCC(C)C)cc1C [drawing 71],1.67 ± 0.2
3,CCCN(c1cc(C(C)(C)C)cc(C(C)(C)C)c1)c1ccc(C(=O)O)cn1 [drawing 77],2.15 ± 0.7
4,CCN(c1cc(C(C)(C)C)cc(C(C)(C)C)c1)c1ncc(C(=O)O)cn1 [drawing 66],1.38 ± 0.4
5,CCCN(c1ccc(C(=O)O)cn1)c1cc(C(C)(C)C)ccc1C,1.8 ± 0.2
6,CC(C)N(c1cc(C(C)(C)C)cc(C(C)(C)C)c1)c1ncc(C(=O)O)cn1,2.46 ± 0.8
7,CC(C)CN(c1cc(C(F)(F)F)cc(C(F)(F)F)c1)c1ccc(C(=O)O)cn1,1 ± 0.03
8,Cc1ccc(C(C)(C)C)cc1N(CC(C)C)c1ccc(C(=O)O)cn1,4.93 ± 2.7
9,CC(C)CN(c1cc(C(C)(C)C)cc(C(C)(C)C)c1)c1ccc(C(=O)O)cn1 [drawing 82],1.49 ± 0.6
10,Cc1cc2c(cc1C1(c3ncc(C(=O)O)cn3)CC1)C(C)(C)CCC2(C)C [drawing 63],1.17 ± 0.1
11,CCN(c1ccc(C(=O)O)cc1)c1cc(C(C)C)c(OCC(C)C)cc1C [drawing 80],1.45 ± 0.2
12,C=C(c1ccc(C(=O)O)cc1)c1cc2c(cc1C)C(C)(C)CCC2(C)C [drawing 61],2.23 ± 0.5
13,CC(C)(C)c1cc(N(CC2CC2)c2ncc(C(=O)O)cn2)cc(C(C)(C)C)c1,1.46 ± 0.2
14,CCN(c1ccc(C(=O)O)cc1)c1cc(C(C)(C)C)cc(C(C)(C)C)c1 [drawing 64],1.37 ± 0.3
15,CC(C)CN(c1cc(C(C)(C)C)cc(C(C)(C)C)c1)c1ncc(C(=O)O)cn1,2.46 ± 0.5
16,CCN(c1ccc(C(=O)O)cc1)c1cc(C(C)(C)C)c(OC)c(C(C)(C)C)c1 [drawing 81],1.63 ± 0.3
17,CCN(c1ccc(C(=O)O)cn1)c1cc(C(C)(C)C)ccc1C [drawing 72],1.59 ± 0.5
18,C=C(c1ccc(C(=O)O)cc1)c1cc(C(C)C)c(OC(C)C)cc1C [drawing 74],1.08 ± 0.1
19,CCN(c1cc(C(F)(F)F)cc(C(F)(F)F)c1)c1ccc(C(=O)O)cn1 [drawing 79],0.96 ± 0.5
20,CC(C)(C)c1cc(-n2c(C(F)(F)F)nc3cc(C(=O)O)ccc32)cc(C(C)(C)C)c1 [drawing 69],1.58 ± 0.2
21,CCN(c1cc(C(C)(C)C)cc(C(C)(C)C)c1)c1ccc(C(=O)O)cn1 [drawing 65],2.62 ± 0.7
22,CC(C)N(c1cc(C(C)(C)C)cc(C(C)(C)C)c1)c1ccc(C(=O)O)cn1,1.65 ± 0.1
23,CC(C)(C)c1cc(N(CC2CC2)c2ccc(C(=O)O)cn2)cc(C(C)(C)C)c1 [drawing 78],2.48 ± 1.8
24,CCOc1c(N(CC)c2ccc(C(=O)O)cc2)cc(C(C)(C)C)cc1C(C)(C)C [drawing 67],1.59 ± 0.2
25,CCCCN(c1cc(C(C)(C)C)cc(C(C)(C)C)c1)c1ccc(C(=O)O)cn1 [drawing 83],5.6 ± 3.6
26,Cc1ccc(C(C)(C)C)cc1N(c1ccc(C(=O)O)cn1)C(C)C,0.98 ± 0.06
27,C=C(c1ccc(C(=O)O)cc1)c1cc(C(C)(C)C)cc(C(C)(C)C)c1 [drawing 76],1.12 ± 0.5
28,CC(C)(C)c1cc(N(Cc2ccccc2)c2ccc(C(=O)O)cn2)cc(C(C)(C)C)c1 [drawing 93],1.94 ± 0.04
